Laboratory results: ChEMBL document CHEMBL3885861, “Open TG-GATES”

Species on record: Rattus norvegicus
Test: Open TG-GATES - Regimen: Single
Assay type: toxicity, organism-based, Sprague-Dawley
Set-up: regimen Single, gender Male, age 6 weeks
Conditions: in vivo, po, route gavage; for Hb / Ht / Lym / MCH / MCHC / MCV / Mono / Neu / PT / Plat / RBC / Ret / WBC / APTT / Bas / Eos / Fbg: tissue Blood; for KIDNEY_L / KIDNEY_R / KIDNEY_TOTAL: tissue Kidney; for LIVER: tissue Liver; for ALP / ALT / AST / BUN / CRE / Ca / Cl / DBIL / GLC / IP / K / LDH / Na / PL / RALB / TBIL / TC / TP / gamma-GTP: tissue Plasma
[1] = 50 mg/kg, 6 h, dose level Middle
[2] = 50 mg/kg, 9 h, dose level Middle
[3] = 50 mg/kg, 24 h, dose level Middle
[4] = 150 mg/kg, 3 h, dose level High

`O=P1(N(CCCl)CCCl)NCCCO1` (stereo unspecified) [CYCLOPHOSPHAMIDE ANHYDROUS] gave a Hb [1] of 12.8 g/dL, a Ht [1] of 37.8% and a Lym [1] of 73.2%. For the same molecule, the MCH [1] was 21.1 pg, the MCHC [1] was 33.7% and the MCV [1] was 62.7 fL. For the same molecule, the Mono [1] was 2.6%, the Neu [1] was 22.8% and the PT [1] was 14.2 s. For the same molecule, the Plat [1] was 115.3 x10_4/uL, the RBC [1] was 603.6 x10_4/ul and the Ret [1] was 8.9%. For the same molecule, the WBC [1] was 84.9 x10_2/uL, the KIDNEY_L [1] was 0.9 g and the KIDNEY_R [1] was 0.8 g. It also gave a KIDNEY_TOTAL [1] of 1.7 g, an LIVER [1] of 7.5 g and an ALP [1] of 1677 IU/L. For the same molecule, the ALT [1] was 35 IU/L, the AST [1] was 72.8 IU/L and the BUN [1] was 9.6 mg/dL. For the same molecule, the CRE [1] was 0.2 mg/dL, the Ca [1] was 10.9 mg/dL and the Cl [1] was 106.2 meq/L. The DBIL [1] was 0.016 mg/dL, the GLC [1] was 171.6 mg/dL and the IP [1] was 9.9 mg/dL. The K [1] was 4.4 meq/L, the LDH [1] was 65 IU/L and the Na [1] was 141.4 meq/L. It also gave a PL [1] of 134 mg/dL, an RALB [1] of 2.5 g/dL and a TBIL [1] of 0.064 mg/dL. The TC [1] was 72.2 mg/dL, the TP [1] was 5.4 g/dL and the gamma-GTP [1] was 1.4 IU/L. It also gave a TERMINAL_BW [2] of 187.4 g, an APTT [2] of 17.8 s and a Bas [2] of 0%. For the same molecule, the Eos [2] was 1%, the Fbg [2] was 284.8 mg/dL and the Hb [2] was 12.7 g/dL. The Ht [2] was 37.5%, the Lym [2] was 76% and the MCH [2] was 20.9 pg. The MCHC [2] was 33.8%, the MCV [2] was 61.8 fL and the Mono [2] was 2%. It also gave a Neu [2] of 21%, a PT [2] of 14.1 s and a Plat [2] of 112.4 x10_4/uL. The RBC [2] was 606.8 x10_4/ul, the Ret [2] was 9.1% and the WBC [2] was 56.3 x10_2/uL. The KIDNEY_L [2] was 0.8 g, the KIDNEY_R [2] was 0.8 g and the KIDNEY_TOTAL [2] was 1.7 g. For the same molecule, the LIVER [2] was 7.1 g, the ALP [2] was 1578.4 IU/L and the ALT [2] was 28.4 IU/L. For the same molecule, the AST [2] was 67.4 IU/L, the BUN [2] was 9.6 mg/dL and the CRE [2] was 0.2 mg/dL. The Ca [2] was 10.6 mg/dL, the Cl [2] was 106.8 meq/L and the DBIL [2] was 0.016 mg/dL. For the same molecule, the GLC [2] was 177.2 mg/dL, the IP [2] was 10.7 mg/dL and the K [2] was 4.1 meq/L. It also gave an LDH [2] of 55.4 IU/L, a Na [2] of 142.8 meq/L and a PL [2] of 125.4 mg/dL. For the same molecule, the RALB [2] was 2.5 g/dL, the TBIL [2] was 0.066 mg/dL and the TC [2] was 73.8 mg/dL. For the same molecule, the TP [2] was 5.3 g/dL, the gamma-GTP [2] was 1.6 IU/L and the TERMINAL_BW [3] was 200.3 g. For the same molecule, the APTT [3] was 24.4 s, the Bas [3] was 0% and the Eos [3] was 1%. For the same molecule, the Fbg [3] was 285.8 mg/dL, the Hb [3] was 13 g/dL and the Ht [3] was 38.7%. For the same molecule, the Lym [3] was 80.8%, the MCH [3] was 20.8 pg and the MCHC [3] was 33.5%. The MCV [3] was 62 fL, the Mono [3] was 2.4% and the Neu [3] was 15.4%. It also gave a PT [3] of 14.5 s, a Plat [3] of 114 x10_4/uL and an RBC [3] of 624.4 x10_4/ul. The Ret [3] was 5.5%, the WBC [3] was 30.3 x10_2/uL and the KIDNEY_L [3] was 0.9 g. It also gave a KIDNEY_R [3] of 0.9 g, a KIDNEY_TOTAL [3] of 1.8 g and an LIVER [3] of 8.4 g. The ALP [3] was 1583 IU/L, the ALT [3] was 36.8 IU/L and the AST [3] was 68.8 IU/L. It also gave a BUN [3] of 14 mg/dL, a CRE [3] of 0.2 mg/dL and a Ca [3] of 11 mg/dL. It also gave a Cl [3] of 106 meq/L, a DBIL [3] of 0.026 mg/dL and a GLC [3] of 176.4 mg/dL. It also gave an IP [3] of 8.3 mg/dL, a K [3] of 4.4 meq/L and an LDH [3] of 101.8 IU/L. The Na [3] was 140.4 meq/L, the PL [3] was 143.2 mg/dL and the RALB [3] was 2.5 g/dL. The TBIL [3] was 0.066 mg/dL, the TC [3] was 79.4 mg/dL and the TP [3] was 5.4 g/dL. It also gave a gamma-GTP [3] of 1 IU/L, a TERMINAL_BW [4] of 193.2 g and an APTT [4] of 16.8 s. For the same molecule, the Bas [4] was 0%, the Eos [4] was 0.8% and the Fbg [4] was 274.6 mg/dL. For the same molecule, the Hb [4] was 12.8 g/dL, the Ht [4] was 38.2% and the Lym [4] was 77.6%. It also gave an MCH [4] of 21.2 pg, an MCHC [4] of 33.3% and an MCV [4] of 63.5 fL. The Mono [4] was 2.8%, the Neu [4] was 18% and the PT [4] was 14 s. For the same molecule, the Plat [4] was 118.8 x10_4/uL, the RBC [4] was 602 x10_4/ul and the Ret [4] was 9.4%. The WBC [4] was 95.6 x10_2/uL, the KIDNEY_L [4] was 0.9 g and the KIDNEY_R [4] was 0.9 g. For the same molecule, the KIDNEY_TOTAL [4] was 1.7 g, the LIVER [4] was 8 g and the ALP [4] was 1465.2 IU/L.
